In patent publication US20080081078A1, “Prevention of Cell Proliferation by Inhibiting Myosin Light Chain Kinase” (The Board of Trustees of the University of Illinois, priority 2006, published 2008):
*1 amine or outer side, *2 acyl side, *3 side chain or, on linkers, in order; H or OH if unused. Where a SMILES comes first, the peptide text is derived from it. Bridges are numbered along the chain shown (N, C = ends). Roman numbers before positions name the chains, in order. [ ]: non-standard residue; d: D form. The star is where a group is joined. Actinocin(9to1) = Cc1c2oc3c(C)ccc(C(=O)[*:1])c3nc-2c(C(=O)[*:2])c(N)c1=O; NMeV = CN[C@H](C(=O)O)C(C)C; Cbz = O=C(OCc1ccccc1)*; Sar = CNCC(=O)O; CH2F = FC*

What was measured:
[1] = tested on: pig pulmonary artery smooth muscle cells; assay: Cell death / apoptosis in smooth muscle cells (SMC); assay type: cell-based
Procedure: (§1) The stoichiometry of MLC20 phosphorylation (FIG. 1B, inset) was quantified using the urea gel/Western blotting method described above in untreated (Un) pig pulmonary artery smooth muscle cells (SMC) and SMC treated with 10 μM dexamethasone (Dex), 10 μM actinomycin D (ActD), 100 μM cycloheximide (Chx), 2 μM camptothecin (Cam), and 100 μM etoposide (Eto) for 24 hrs (mean+/−SE, n=3).
(§2) Next, in order to determine whether MLC-DP can trigger cell death, SMC were treated with ML-7 or KT5926, two inhibitors of MLCK (Nakanishi et al., 1990; Garcia, 1998; and Bain et al., 2003).
(§3) SMC cells were either treated with 10 μM cytochalasin D (CytD) or grown on the non-ionic substrate polyHema to prevent attachment.
SMC were left untreated, treated with ML-7 alone for 16 hours or treated with 50 μM z-VAD-fmk (caspase) for 1 hr followed by 20 μM ML-7 for 16 hours. […] The results represent the mean+/−SE for 3 independent experiments and * indicates a p value <0.05 using a paired T test.

[2] = tested on: MLC20 phosphorylation; assay: MLC20 phosphorylation by urea gel/Western blotting in smooth muscle cells (SMC); assay type: cell-based, pig
Procedure: NIH 3T3 fibroblasts were obtained from ATCC and were grown in Dulbecco's Modified Eagle Medium (DMEM) (Gibco BRL, Gaithersburg, Md.) supplemented with 10% FBS and 1% penicillin and streptomycin in a 37° C. incubator. 3T3 cells were treated with 500 nM actinomycin D in DMEM containing 0.5% FBS without antibiotics for the 0, 2, 4, 8, 16, or 24 hours. Cells were then washed with phosphate buffered saline (PBS). Floating cells were collected by centrifugation and combined with attached cells that were harvested by trypsinization. MLC20 phosphorylation was quantified be Western blotting with an anti-MLC20 antibody (FIG. 1). In short, the harvested cells were treated with ice cold 10% TCA, 10 mM DTT to precipitate the cellular proteins. The pellets were washed with acetone, dissolved in 9 M urea, 10 mM DTT, 20 mM Tris, pH 7.5 and separated using glycerol-urea polyacrylamide gel electrophoresis (PAGE). The proteins were transferred to nitrocellulose, the un-, mono-, and di-phosphorylated forms of MLC20 were identified using an affinity purified antibody to MLC20 and horseradish peroxidase-linked secondary antibody (Jackson ImmunoResearch, West Grove, Pa.). Protein bands were visualized with ECL reagent and the stoichiometry of phosphorylation (mol PO4/mol MLC20) was calculated as described (Obara et al., 1989, “Okadaic acid, a phosphatase inhibitor, produces a Ca2+ and calmodulin-independent contraction of lamb tracheal smooth muscle,” Pfluger's Archiv. 414: 134-138).
as §1, §2, §3

[3] = tested on: SMC; assay: TUNEL staining of SMC; assay type: cell-based, pig
Procedure: Also, cells were treated with 50 μM z-VAD-fmk for 1 hour, 20 μM ML-7 for 4 hours or 50 μM z-VAD-fmk for 1 hours followed by 20 μM ML-7 for 4 hours (FIG. 5B). The cells were then fixed and stained with TUNEL reagent and DAPI.

[4] = tested on: MLC20 phosphorylation; assay: MLC20 phosphorylation by urea gel/Western blotting in NIH 3T3 fibroblasts; assay type: cell-based; conditions: 500 nM actinomycin D, 0-24 hours
Procedure: NIH 3T3 fibroblasts were obtained from ATCC and were grown in Dulbecco's Modified Eagle Medium (DMEM) (Gibco BRL, Gaithersburg, Md.) supplemented with 10% FBS and 1% penicillin and streptomycin in a 37° C. incubator. 3T3 cells were treated with 500 nM actinomycin D in DMEM containing 0.5% FBS without antibiotics for the 0, 2, 4, 8, 16, or 24 hours. Cells were then washed with phosphate buffered saline (PBS). Floating cells were collected by centrifugation and combined with attached cells that were harvested by trypsinization. MLC20 phosphorylation was quantified be Western blotting with an anti-MLC20 antibody (FIG. 1). In short, the harvested cells were treated with ice cold 10% TCA, 10 mM DTT to precipitate the cellular proteins. The pellets were washed with acetone, dissolved in 9 M urea, 10 mM DTT, 20 mM Tris, pH 7.5 and separated using glycerol-urea polyacrylamide gel electrophoresis (PAGE). […] Protein bands were visualized with ECL reagent and the stoichiometry of phosphorylation (mol PO4/mol MLC20) was calculated as described (Obara et al., 1989, “Okadaic acid, a phosphatase inhibitor, produces a Ca2+ and calmodulin-independent contraction of lamb tracheal smooth muscle,” Pfluger's Archiv. 414: 134-138).

[5] = tested on: NIH 3T3 cells; assay: Cell death in NIH 3T3 cells; assay type: cell-based; conditions: data not shown
[6] = 24 hrs, 10 μM Dex, 10 μM ActD, 100 μM Chx, 2 μM Cam, 100 μM Eto

## C=C1[C@@H](C)[C@H]2[C@H](Cc3ccccc3)NC(=O)[C@]23[C@H](OC(C)=O)/C=C/[C@@](C)(O)C(=O)[C@@H](C)C/C=C/[C@H]3[C@@H]1O [cytochalasin D]
[1]; SMC, 10 μM cytochalasin D overnight, vs untreated
  cell death: significant increases
[2]; 10 μM cytochalasin D overnight, vs untreated
  MLC20 phosphorylation: significant decreases

## COC(=O)C[C@H](NC(=O)[C@H](C)NC(=O)[C@@H](NC(=O)OCc1ccccc1)C(C)C)C(=O)CF [z-VAD-fmk] (Cbz-Val-Ala-Asp(OMe)-CH2F)
[3]; 50 μM z-VAD-fmk 1 hour then 20 μM ML-7 4 hours
  TUNEL positive nuclei in ML-7 treated cells: decreased the number of TUNEL positive nuclei
[3]; single agent: 50 μM z-VAD-fmk 1 hour or 20 μM ML-7 4 hours
  TUNEL positive nuclei: very few TUNEL positive nuclei
[1]; 50 μM z-VAD-fmk 1 hr then 20 μM ML-7 16 hours, vs ML-7 alone
  number of apoptotic cells (FACS): significant decrease

## C[C@@H]1C[C@@H]([C@H](O)CC2CC(=O)NC(=O)C2)C(=O)[C@@H](C)C1 [cycloheximide]
[2]; [6]
  MLC20 phosphorylation: dephosphorylated

## Cc1c2oc3c(C)ccc(C(=O)N[C@@H]4C(=O)N[C@H](C(C)C)C(=O)N5CCC[C@H]5C(=O)N(C)CC(=O)N(C)[C@@H](C(C)C)C(=O)O[C@@H]4C)c3nc-2c(C(=O)N[C@@H]2C(=O)N[C@H](C(C)C)C(=O)N3CCC[C@H]3C(=O)N(C)CC(=O)N(C)[C@@H](C(C)C)C(=O)O[C@@H]2C)c(N)c1=O [actinomycin D] (I: T[dV]P[Sar][NMeV] / II: T[dV]P[Sar][NMeV]; ester I:1-I:C, II:1-II:C; linker I:N-II:N via Actinocin(9to1))
[4]
  MLC20 phosphorylation: initial increase in MLC20 phosphorylation that was followed by MLC20 dephosphorylation
[2]; [6]
  MLC20 phosphorylation: dephosphorylated

## CC[C@@]1(O)C(=O)OCc2c1cc1n(c2=O)Cc2cc3ccccc3nc2-1 [camptothecin]
[2]; [6]
  MLC20 phosphorylation: dephosphorylated

## CCCOc1ccc2c(c1)c1c3c(c4c5ccccc5n5c4c1n2[C@H]1C[C@](O)(C(=O)OC)[C@]5(C)O1)CNC3=O (relative stereo) [KT5926, [(8R*,9S*,11S*)-(−)9-hydroxy-9-methoxycarbonyl-8-methyl-14-n-propoxy-2,3,9,10-tetrahydro-8,11-epoxy, 1H,8H, 11H-2,7b,11a-triazadibenzo [a,g]cycloocta [cde]trinden-1-one]
[5]
  cell death: cell death, including genome digestion
